Test results from ChEMBL document CHEMBL1147190, “Acid-catalyzed synthesis of oxathiolone fused chalcones. Comparison of their activity toward various microorganisms and human cancer cells line” (Eur J Med Chem, 2007).
Converted amounts (≈) assume the structure as drawn.

Columns and labels:
[1] = tested on: Mycobacterium tuberculosis; assay: Tuberculostatic activity against Mycobacterium tuberculosis H37Rv; format: functional
Salmonella typhimurium = assay: Bacteriostatic activity against Salmonella Typhimurium PCM 2180 after 24 hrs by serial dilution microtiter plate method; format: functional, organism-based, Salmonella enterica subsp. enterica serovar Typhimurium; conditions: Salmonella enterica
Micrococcus luteus = assay: Bacteriostatic activity against Micrococcus luteus after 24 hrs by serial dilution microtiter plate method; format: functional, organism-based
Mycobacterium kansasii = assay: Tuberculostatic activity against Mycobacterium kansasii; format: functional
Proteus vulgaris = assay: Bacteriostatic activity against Proteus vulgaris ATCC 6380 after 24 hrs by serial dilution microtiter plate method; format: functional, organism-based; conditions: ATCC 6380, 24 h
Escherichia coli = assay: Bacteriostatic activity against Escherichia coli ATCC 11775 after 24 hrs by serial dilution microtiter plate method; format: functional, organism-based; conditions: ATCC 11775, 24 h
HeLa = assay: Cytotoxicity against human HeLa S3 cells after 120 hrs by MTT assay; format: functional, cell-based
Candida albicans = assay: Antifungal activity against Candida albicans ATCC 10261 after 48 hrs by serial dilution microtiter plate method; format: functional, organism-based; conditions: ATCC 10261, 48 h
Staphylococcus aureus = assay: Bacteriostatic activity against Staphylococcus aureus ATCC 9144 after 24 hrs by serial dilution microtiter plate method; format: functional, organism-based; conditions: ATCC 9144, 24 h

SMILES | MIC [1] [µg/mL] | IC50 (Salmonella typhimurium) [µg/mL] | IC50 (Micrococcus luteus) [µg/mL] | MIC (Mycobacterium kansasii) [µg/mL] | IC50 (Proteus vulgaris) [µg/mL] | IC50 (Escherichia coli) [µg/mL] | IC50 (HeLa) [µM] | IC50 (Candida albicans) [µg/mL] | IC50 (Staphylococcus aureus) [µg/mL]
COc1ccc2oc(=O)sc2c1C(=O)/C=C/c1ccc(N(C)C)cc1 | > 100 | > 1000 | > 1000 | > 100 | > 1000 | > 1000 | > 100 | > 1000 | > 1000
COc1ccc2oc(=O)sc2c1C(=O)/C=C/c1cccc(Cl)c1 | 25 (≈ 72.1 µM) | > 1000 | > 1000 | 100 (≈ 288 µM) | > 1000 | > 1000 | – | > 1000 | > 1000
COc1ccc2oc(=O)sc2c1C(=O)/C=C/c1ccccc1Cl | 50 (≈ 144 µM) | > 1000 | > 1000 | > 100 | > 1000 | > 1000 | – | > 1000 | > 1000
COc1ccc2oc(=O)sc2c1C(=O)/C=C/c1ccccc1 | > 100 | > 1000 | > 1000 | > 100 | > 1000 | > 1000 | 8.4 | > 1000 | > 1000
COc1ccc(/C=C/C(=O)c2c(OC)ccc3oc(=O)sc23)cc1 | > 100 | > 1000 | > 1000 | > 100 | > 1000 | > 1000 | – | > 1000 | > 1000
COc1ccc2oc(=O)sc2c1C(=O)/C=C/c1ccc(OCCN(C)C)cc1 | 100 (≈ 250 µM) | 250 (≈ 626 µM) | 15.6 (≈ 39.1 µM) | 100 (≈ 250 µM) | 125 (≈ 313 µM) | 125 (≈ 313 µM) | 8.3 | 125 (≈ 313 µM) | 15.6 (≈ 39.1 µM)
COc1ccc2oc(=O)sc2c1C(=O)/C=C/c1ccc(Br)cc1 | > 100 | > 1000 | > 1000 | > 100 | > 1000 | > 1000 | – | > 1000 | > 1000
COc1ccc2oc(=O)sc2c1C(=O)/C=C/c1ccc(OCCN2CCOCC2)cc1 | 50 (≈ 113 µM) | 250 (≈ 566 µM) | 31.2 (≈ 70.7 µM) | > 100 | 125 (≈ 283 µM) | 125 (≈ 283 µM) | – | 250 (≈ 566 µM) | 31.2 (≈ 70.7 µM)
COc1ccc(/C=C/C(=O)c2c(OC)ccc3oc(=O)sc23)cc1OC | > 100 | > 1000 | > 1000 | > 100 | > 1000 | > 1000 | 14.1 | > 1000 | > 1000
COc1ccc2oc(=O)sc2c1C(=O)/C=C/c1ccc(Cl)cc1 | 100 (≈ 288 µM) | > 1000 | 15.6 (≈ 45 µM) | > 100 | > 1000 | > 1000 | 5.2 | 62.5 (≈ 180 µM) | 7.8 (≈ 22.5 µM)
COc1ccc2oc(=O)sc2c1C(=O)/C=C/c1ccc([N+](=O)[O-])cc1 | > 100 | > 1000 | > 1000 | > 100 | > 1000 | > 1000 | – | > 1000 | > 1000
